From patent US10370433B2, “Compositions and methods for diagnosis and treatment of cancer” (BIONTECH AG, priority 2015, dated 2019)
Positions of bridges follow the written chain, without caps; N, C: chain ends. Residues, ends and D or L forms follow the SMILES beside them.

Target: T1, recombinant human Seprase (rhuSeprase) (Homo sapiens, UniProt Q12884)
T1 construct: named pCEP4-IgKappa-huSeprase-coCHO_26-760aa-H6 and used for the generation of recombinant soluble human Seprase (rhuSeprase); mouse Ig kappa-chain V-J2-C secretion signal (N, cleaved yes); made in house; host or cells: FreeStyle CHO-S cells (transient transfection; purified from supernatant by Ni-chelate and SEC)
T1 sequence (Q12884 26-760): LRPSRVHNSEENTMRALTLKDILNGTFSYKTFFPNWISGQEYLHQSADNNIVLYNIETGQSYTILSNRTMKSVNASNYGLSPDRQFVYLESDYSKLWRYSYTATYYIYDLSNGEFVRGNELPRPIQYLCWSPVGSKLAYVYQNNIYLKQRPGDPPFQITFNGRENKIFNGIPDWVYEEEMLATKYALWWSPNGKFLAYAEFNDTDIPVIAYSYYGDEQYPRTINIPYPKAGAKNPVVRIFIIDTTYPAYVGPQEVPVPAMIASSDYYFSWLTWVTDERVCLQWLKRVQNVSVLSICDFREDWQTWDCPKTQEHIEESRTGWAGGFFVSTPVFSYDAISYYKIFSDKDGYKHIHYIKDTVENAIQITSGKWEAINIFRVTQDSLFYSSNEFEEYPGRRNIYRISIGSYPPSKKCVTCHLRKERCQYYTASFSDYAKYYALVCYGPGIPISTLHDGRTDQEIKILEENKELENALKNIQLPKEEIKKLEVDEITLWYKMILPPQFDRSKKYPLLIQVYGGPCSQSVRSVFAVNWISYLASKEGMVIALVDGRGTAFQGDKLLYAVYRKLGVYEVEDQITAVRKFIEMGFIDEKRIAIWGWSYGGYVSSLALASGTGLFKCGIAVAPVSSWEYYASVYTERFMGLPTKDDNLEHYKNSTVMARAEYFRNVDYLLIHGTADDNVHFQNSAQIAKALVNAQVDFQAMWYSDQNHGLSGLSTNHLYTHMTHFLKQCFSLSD
Experiment: Surface plasmon resonance (Biacore T100) on immobilized rhuSeprase
Type: binding
Conditions: for kon: read-out: ka (1/Ms)

Row | Structure (SMILES) | offrate, times slower compared to MC-FA-012 | kon [M⁻¹ s⁻¹] | kd [s⁻¹]
1 | CC[C@H](C)[C@@H]1NC(=O)[C@@H]2CSSC[C@H](NC(=O)[C@H](C)NC(=O)CNC(=O)[C@H](CO)NC(=O)CNC(=O)CON=CC(=O)NCCCC[C@H](NC(=O)[C@H](CO)NC(=O)CNC(=O)[C@H](CO)NC(=O)CNC(=O)[C@H](CCCCNC(=O)C=NOCC(=O)NCC(=O)N[C@@H](CO)C(=O)NCC(=O)N[C@@H](C)C(=O)N[C@H]3CSSC[C@@H]4NC(=O)[C@H](CCCNC(=N)N)NC(=O)CNC(=O)[C@@H]5CCCN5C(=O)[C@@H]5CSSC[C@@H](C(=O)NCC(=O)O)NC(=O)[C@H](Cc6ccc(O)cc6)NC(=O)CNC(=O)[C@H](CC(N)=O)NC(=O)CNC(=O)[C@H](CCCNC(=N)N)NC(=O)[C@H](CSSC[C@H](NC(=O)[C@H](CC(=O)O)NC(=O)[C@@H]6CCCN6C(=O)CNC(=O)[C@H](CCCNC(=N)N)NC(=O)CNC(=O)[C@@H]6CCCN6C(=O)[C@H]([C@@H](C)O)NC(=O)[C@H](Cc6c[nH]c7ccccc67)NC(=O)[C@H](CC(N)=O)NC(=O)[C@H](CO)NC(=O)[C@H](Cc6ccc(O)cc6)NC(=O)[C@@H]6CCCN6C3=O)C(=O)N[C@@H](CCCNC(=N)N)C(=O)N[C@@H](CCCNC(=N)N)C(=O)N[C@@H](CC(=O)O)C(=O)N[C@@H](CO)C(=O)N[C@@H](CC(=O)O)C(=O)N5)NC(=O)[C@H]([C@@H](C)CC)NC4=O)NC(=O)[C@H](CO)NC(=O)CNC(=O)[C@H](CO)NC(=O)CNC(=O)[C@H](CCCCNC(=O)C=NOCC(=O)NCC(=O)N[C@@H](CO)C(=O)NCC(=O)N[C@@H](C)C(=O)N[C@H]3CSSC[C@@H]4NC(=O)[C@H](CCCNC(=N)N)NC(=O)CNC(=O)[C@@H]5CCCN5C(=O)[C@@H]5CSSC[C@@H](C(=O)NCC(=O)O)NC(=O)[C@H](Cc6ccc(O)cc6)NC(=O)CNC(=O)[C@H](CC(N)=O)NC(=O)CNC(=O)[C@H](CCCNC(=N)N)NC(=O)[C@H](CSSC[C@H](NC(=O)[C@H](CC(=O)O)NC(=O)[C@@H]6CCCN6C(=O)CNC(=O)[C@H](CCCNC(=N)N)NC(=O)CNC(=O)[C@@H]6CCCN6C(=O)[C@H]([C@@H](C)O)NC(=O)[C@H](Cc6c[nH]c7ccccc67)NC(=O)[C@H](CC(N)=O)NC(=O)[C@H](CO)NC(=O)[C@H](Cc6ccc(O)cc6)NC(=O)[C@@H]6CCCN6C3=O)C(=O)N[C@@H](CCCNC(=N)N)C(=O)N[C@@H](CCCNC(=N)N)C(=O)N[C@@H](CC(=O)O)C(=O)N[C@@H](CO)C(=O)N[C@@H](CC(=O)O)C(=O)N5)NC(=O)[C@H]([C@@H](C)CC)NC4=O)NC(=O)[C@H](CO)NC(=O)CNC(=O)[C@H](CO)NC(=O)CNC(=O)CN3CCN(CC(=O)O)CCN(CC(=O)O)CCN(CC(=O)O)CC3)C(=O)O)C(=O)N3CCC[C@H]3C(=O)N[C@@H](Cc3ccc(O)cc3)C(=O)N[C@@H](CO)C(=O)N[C@@H](CC(N)=O)C(=O)N[C@@H](Cc3c[nH]c4ccccc34)C(=O)N[C@@H]([C@@H](C)O)C(=O)N3CCC[C@H]3C(=O)NCC(=O)N[C@@H](CCCNC(=N)N)C(=O)NCC(=O)N3CCC[C@H]3C(=O)N[C@@H](CC(=O)O)C(=O)N[C@H]3CSSC[C@H](NC1=O)C(=O)N[C@@H](CCCNC(=N)N)C(=O)NCC(=O)N[C@@H](CC(N)=O)C(=O)NCC(=O)N[C@@H](Cc1ccc(O)cc1)C(=O)N[C@H](C(=O)NCC(=O)O)CSSC[C@H](NC(=O)[C@H](CC(=O)O)NC(=O)[C@H](CO)NC(=O)[C@H](CC(=O)O)NC(=O)[C@H](CCCNC(=N)N)NC(=O)[C@H](CCCNC(=N)N)NC3=O)C(=O)N1CCC[C@H]1C(=O)NCC(=O)N[C@@H](CCCNC(=N)N)C(=O)N2 (single isomer, unassigned) [DOTA-(MC-FA-012)3] | around 530 times | 2.11e+07 | 
2 | CC(C)C[C@@H]1NC(=O)[C@@H]2CSSC[C@@H](C(=O)NCC(=O)O)NC(=O)[C@H](Cc3ccccc3)NC(=O)CNC(=O)[C@H](CC(N)=O)NC(=O)[C@@H]3CCCN3C(=O)CNC(=O)[C@@H]3CSSC[C@H](NC(=O)[C@H](CC(=O)O)NC(=O)[C@@H]4CCCN4C(=O)CNC(=O)[C@H](CCCNC(=N)N)NC(=O)CNC(=O)[C@@H]4CCCN4C(=O)[C@H]([C@@H](C)O)NC(=O)[C@H](Cc4c[nH]c5ccccc45)NC(=O)[C@H](CC(N)=O)NC(=O)[C@H](CO)NC(=O)[C@H](Cc4ccc(O)cc4)NC(=O)[C@@H]4CCCN4C(=O)[C@@H](NC(=O)[C@H](C)NC(=O)CNC(=O)[C@H](CO)NC(=O)CN)CSSC[C@H](NC(=O)CNC(=O)[C@H](C)NC1=O)C(=O)N[C@@H](C(C)C)C(=O)N3)C(=O)N[C@@H](CO)C(=O)N[C@@H](CCC(N)=O)C(=O)N[C@@H](CC(=O)O)C(=O)N[C@@H](CO)C(=O)N[C@@H](CC(=O)O)C(=O)N2 [ET-FA-012] (H-GSGACPYSNWTPGRGPDCSQDSDCLAGCVCGPNGFCG-OH; disulfide 5-28, 18-30, 24-36; N-terminus and C-terminus assumed) |  | 608000 | 0.8528
3 | CC[C@H](C)[C@@H]1NC(=O)[C@@H]2CSSC[C@H](NC(=O)[C@H](C)NC(=O)CNC(=O)[C@H](CO)NC(=O)CN)C(=O)N3CCC[C@H]3C(=O)N[C@@H](Cc3ccc(O)cc3)C(=O)N[C@@H](CO)C(=O)N[C@@H](CCCNC(=N)N)C(=O)N[C@@H](Cc3c[nH]c4ccccc34)C(=O)N[C@@H](CCSC)C(=O)N3CCC[C@H]3C(=O)NCC(=O)N[C@@H](CCCNC(=N)N)C(=O)NCC(=O)N3CCC[C@H]3C(=O)N[C@@H](CO)C(=O)N[C@H]3CSSC[C@H](NC1=O)C(=O)N[C@@H](CCCNC(=N)N)C(=O)NCC(=O)N[C@@H](CC(N)=O)C(=O)NCC(=O)N[C@@H](Cc1ccc(O)cc1)C(=O)N[C@H](C(=O)NCC(=O)O)CSSC[C@H](NC(=O)[C@H](CC(=O)O)NC(=O)[C@H](CO)NC(=O)[C@H](CC(=O)O)NC(=O)[C@H](CCCNC(=N)N)NC(=O)[C@H](CCCNC(=N)N)NC3=O)C(=O)N1CCC[C@H]1C(=O)NCC(=O)N[C@@H](CCCNC(=N)N)C(=O)N2 [FA7-A05] (H-GSGACPYSRWMPGRGPSCRRDSDCPGRCICRGNGYCG-OH; disulfide 5-28, 18-30, 24-36; N-terminus and C-terminus assumed) |  | 246000 | 0.05035
4 | CC[C@H](C)[C@@H]1NC(=O)[C@@H]2CSSC[C@H](NC(=O)[C@H](C)NC(=O)CNC(=O)[C@H](CO)NC(=O)CN)C(=O)N3CCC[C@H]3C(=O)N[C@@H](Cc3ccc(O)cc3)C(=O)N[C@@H]([C@@H](C)O)C(=O)N[C@@H](CC(N)=O)C(=O)N[C@@H](Cc3c[nH]c4ccccc34)C(=O)N[C@@H](CCCNC(=N)N)C(=O)N3CCC[C@H]3C(=O)NCC(=O)N[C@@H](CCCNC(=N)N)C(=O)NCC(=O)N3CCC[C@H]3C(=O)N[C@@H](C)C(=O)N[C@H]3CSSC[C@H](NC1=O)C(=O)N[C@@H](CCCNC(=N)N)C(=O)NCC(=O)N[C@@H](CC(N)=O)C(=O)NCC(=O)N[C@@H](Cc1ccc(O)cc1)C(=O)N[C@H](C(=O)NCC(=O)O)CSSC[C@H](NC(=O)[C@H](CC(=O)O)NC(=O)[C@H](CO)NC(=O)[C@H](CC(=O)O)NC(=O)[C@H](CCCNC(=N)N)NC(=O)[C@H](CCCNC(=N)N)NC3=O)C(=O)N1CCC[C@H]1C(=O)NCC(=O)N[C@@H](CCCNC(=N)N)C(=O)N2 [FA8-C09] (H-GSGACPYTNWRPGRGPACRRDSDCPGRCICRGNGYCG-OH; disulfide 5-28, 18-30, 24-36; N-terminus and C-terminus assumed) |  | 9.92e+06 | 2.935
